# Experimental data as given in patent publication US12545659B2, “IRAK degraders and uses thereof” (Kymera Therapeutics, Inc., priority 2019, dated 2026).
# Target: T1, IRAK4 (Homo sapiens, UniProt Q9NWZ3)
# T1 construct: endogenous in cells; host or cells: OCI-LY10
# T1 sequence (Q9NWZ3 1-460): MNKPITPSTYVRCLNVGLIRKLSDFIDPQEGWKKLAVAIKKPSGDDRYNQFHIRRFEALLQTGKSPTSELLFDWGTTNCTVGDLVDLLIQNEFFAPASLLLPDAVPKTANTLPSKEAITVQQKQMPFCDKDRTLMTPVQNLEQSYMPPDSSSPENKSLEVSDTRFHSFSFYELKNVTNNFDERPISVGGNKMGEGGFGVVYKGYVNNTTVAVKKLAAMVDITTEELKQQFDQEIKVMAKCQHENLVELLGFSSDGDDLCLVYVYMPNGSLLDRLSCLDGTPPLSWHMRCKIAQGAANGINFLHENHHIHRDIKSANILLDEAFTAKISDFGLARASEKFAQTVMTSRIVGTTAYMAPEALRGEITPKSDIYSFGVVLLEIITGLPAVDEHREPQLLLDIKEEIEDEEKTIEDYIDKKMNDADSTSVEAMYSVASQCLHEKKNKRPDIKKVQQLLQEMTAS
# Experiment: IRAK4 MSD Degradation in OCI-LY10
# Assay type: cell-based
# Conditions: OCI-LY10 cells, 4 hrs incubation, read-out: IRAK4 degradation in OCI-LY10 at 4 hrs: DC50
# Procedure, shortened: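 IRAK4 remaining in lysates was read by Meso Scale electrochemiluminescence sandwich (2H9 capture, Y279 plus SULFO-TAG detection). Cells were exposed 4 to 24 h at 37 °C to eight 3-fold dilutions from 1 to 10 μM final top; three-parameter logistic fit gave DC50.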
row,Compound,DC50 [nM]
1,CN(C[C@H]1CC[C@H](n2cc3cc(NC(=O)c4cnn5cccnc45)c(N4CCOCC4)cc3n2)CC1)C1CCN(Cc2cccc3c2n(C)c(=O)n3C2CCC(=O)NC2=O)CC1 (some centres unmarked) [I-116],< 50
2,Cn1c(=O)n(C2CCC(=O)NC2=O)c2cccc(CN3CCOC4(CCN(Cc5ccc(-n6cc7cc(NC(=O)c8cccc(C(F)(F)F)n8)c(C(C)(C)O)cc7n6)cc5)CC4)C3)c21 (centres unmarked) [I-52],50 to 100
3,COc1cccc(C(=O)Nc2cc3cn([C@H]4CC[C@H](CN5CCC6(CC5)CC(CCc5cccc7c5n(C)c(=O)n7C5CCC(=O)NC5=O)C6)CC4)nc3cc2C(C)(C)O)n1 (some centres unmarked) [I-207],50 to 100

# Second part, the molecule after the results:
row,DC50 [nM],Compound
1,50 to 100,COc1cc2nn([C@H]3CC[C@H](CN4CC(c5cccc6c5n(C)c(=O)n6C5CCC(=O)NC5=O)C4)CC3)cc2cc1NC(=O)c1cccc(C(F)(F)F)n1 (some centres unmarked) [I-111]
2,500 to 1000,COc1cc2nn([C@H]3CC[C@H](CN(C)C4CCN(c5cccc6c5n(C)c(=O)n6C5CCC(=O)N(C)C5=O)CC4)CC3)cc2cc1NC(=O)c1cccc(C(F)(F)F)n1 (some centres unmarked) [I-283]
3,500 to 1000,CN(C[C@H]1CC[C@H](n2cc3cc(NC(=O)c4ccccn4)c(C(C)(C)O)cc3n2)CC1)C1CCN(c2ccc3c(c2)n(C2CCC(=O)NC2=O)c(=O)n3C)CC1 (some centres unmarked) [I-86]
4,< 50,CN(C[C@H]1CC[C@H](n2cc3cc(NC(=O)c4ccccn4)c(C(C)(C)O)cc3n2)CC1)C1CCN(c2cccc3c2n(C)c(=O)n3C2CCC(=O)NC2=O)CC1 (some centres unmarked) [I-84]
5,50 to 100,Cn1c(=O)n(C2CCC(=O)NC2=O)c2cccc(C[C@H]3C[C@]4(CC[C@@H](N(C)C[C@H]5CC[C@H](n6cc7cc(NC(=O)c8cccc(C(F)(F)F)n8)c(C(F)F)cc7n6)CC5)CC4)C3)c21 (some centres unmarked) [I-151]
6,50 to 100,CN(C[C@H]1CC[C@H](n2cc3cc(NC(=O)c4cccc(C(F)(F)F)n4)c(C(F)F)cc3n2)CC1)C1CCC2(CC1)CC(Cc1cccc3c1n(C)c(=O)n3C1CCC(=O)NC1=O)C2 (some centres unmarked) [I-278]
7,< 50,CN(C(=O)[C@H]1CC[C@H](n2cc3cc(NC(=O)c4cccc(C(F)(F)F)n4)c(C(C)(C)O)cc3n2)CC1)C1CCN(Cc2cccc3c2n(C)c(=O)n3C2CCC(=O)NC2=O)CC1 (some centres unmarked) [I-43]
8,50 to 100,Cn1c(=O)n(C2CCC(=O)NC2=O)c2cccc(N3CCN(C[C@H]4CC[C@H](n5cc6cc(NC(=O)c7cccc(C(C)(C)F)n7)c(C(F)F)cc6n5)CC4)CC3)c21 (some centres unmarked) [I-177]
9,50 to 100,Cn1c(=O)n(C2CCC(=O)NC2=O)c2cccc(CCCC3CCN(C[C@H]4CC[C@H](n5cc6cc(NC(=O)c7cccc(C(F)(F)F)n7)c(N7CCOCC7)cc6n5)CC4)CC3)c21 (some centres unmarked) [I-135]
10,50 to 100,Cn1c(=O)n(C2CCC(=O)NC2=O)c2cccc(CCOC3CCN(C[C@H]4CC[C@H](n5cc6cc(NC(=O)c7cccc(C(F)(F)F)n7)c(C(F)F)cc6n5)CC4)CC3)c21 (some centres unmarked) [I-266]
11,< 50,COc1cc2nn([C@H]3CC[C@H](CN4CCC(c5cccc6c5n(C)c(=O)n6C5CCC(=O)NC5=O)CC4)CC3)cc2cc1NC(=O)c1cccc(C)n1 (some centres unmarked) [I-328]
12,< 50,CN(C[C@H]1CC[C@H](n2cc3cc(NC(=O)c4cccc(C(F)(F)F)n4)c(C(C)(C)O)cc3n2)CC1)C1CCC2(CC1)CC(Cc1cccc3c1n(C)c(=O)n3C1CCC(=O)NC1=O)C2 (some centres unmarked) [I-74]
13,< 50,Cn1c(=O)n(C2CCC(=O)NC2=O)c2cccc(CCN3CC4(CCN(C(=O)[C@H]5CC[C@H](n6cc7cc(NC(=O)c8cccc(C(F)(F)F)n8)c(C(C)(C)O)cc7n6)CC5)CC4)C3)c21 (some centres unmarked) [I-239]
14,500 to 1000,"Cn1c(=O)n(C2CCC(=O)NC2=O)c2cccc(NC[C@H]3CC[C@H](n4cc5cc(NC(=O)c6cccc(C(F)(F)F)n6)c(C(C)(C)O)cc5n4)CC3)c21 (some centres unmarked) [I-147, N-[2-[4-[[[1-(2,6-dioxo-3-piperidyl)-3-methyl-2-oxo-benzimidazol-4-yl]amino]methyl]cyclohexyl]-6-(1-hydroxy-1-methyl-ethyl)indazol-5-yl]-6-(trifluoromethyl)pyridine-2-carboxamide]"
15,< 50,COc1cc2nn([C@H]3CC[C@H](CN4CCC(c5cccc6c5n(C)c(=O)n6C5CCC(=O)NC5=O)CC4)CC3)cc2cc1NC(=O)c1cccc(C(F)(F)F)n1 (some centres unmarked) [I-110]
16,< 50,CN(C[C@H]1CC[C@H](n2cc3cc(NC(=O)c4cccc(C(C)(C)C)n4)c(C(C)(C)O)cc3n2)CC1)C1CCN(Cc2cccc3c2n(C)c(=O)n3C2CCC(=O)NC2=O)CC1 (some centres unmarked) [I-235]
17,50 to 100,COc1cc2nn([C@H]3CC[C@H](CN4CC(c5cccc6c5n(C)c(=O)n6C5CCC(=O)NC5=O)C4)CC3)cc2cc1NC(=O)c1cccc(C(C)(C)F)n1 (some centres unmarked) [I-112]

# Same assay, conditions: OCI-LY10 cells, 24 hrs incubation, read-out: IRAK4 degradation in OCI-LY10 at 24 hrs: DC50
row,DC50 [nM],Compound
1,< 50,"COc1cc2nn([C@H]3CC[C@H](CN4CC5(CC(CCNc6cccc7c6C(=O)N([C@@H]6CCC(=O)NC6=O)C7=O)C5)C4)CC3)cc2cc1NC(=O)c1cccc(C(C)(F)F)n1 [I-254, 6-(1,1-Difluoroethyl)-N-[2-[4-[[6-[2-[[2-[(3R)-2,6-dioxo-3-piperidyl]-1,3-dioxo-isoindolin-4-yl]amino]ethyl]-2-azaspiro[3.3]heptan-2-yl]methyl]cyclohexyl]-6-methoxy-indazol-5-yl]pyridine-2-carboxamide]"
2,50 to 100,COc1cc2c(cc1NC(=O)c1cccc(C(F)(F)F)n1)CN([C@H]1CC[C@H](CN3CC4(CC(CCNc5cccc6c5C(=O)N(C5CCC(=O)NC5=O)C6=O)C4)C3)CC1)C2=O (some centres unmarked) [I-331]
3,50 to 100,COc1cc2nn([C@H]3CC[C@H](CN4CCC5(CC4)CC(CCNc4cccc6c4C(=O)C(C4CCC(=O)NC4=O)C6=O)C5)CC3)cc2cc1NC(=O)c1ccnc(C)n1 (some centres unmarked) [I-120]
4,500 to 1000,CC(C)(O)c1cc2c(cnn2CCN2CCC3(CC2)CC(CCNc2cccc4c2C(=O)N(C2CCC(=O)NC2=O)C4=O)C3)cc1NC(=O)c1cccc(C(F)(F)F)n1 (centres unmarked) [I-87]
5,50 to 100,O=C1CCC(N2C(=O)c3cccc(NCCCOCC4CCN(C[C@H]5CC[C@H](n6cc7cc(NC(=O)c8cccc(C(F)(F)F)n8)c(C(F)F)cc7n6)CC5)CC4)c3C2=O)C(=O)N1 (some centres unmarked) [I-33]
6,500 to 1000,CC(C)(O)c1cc2nc(N3CCC(CN4CCC5(CC4)CC(CCNc4cccc6c4C(=O)N(C4CCC(=O)NC4=O)C6=O)C5)CC3)oc2cc1NC(=O)c1cccc(C(F)(F)F)n1 (centres unmarked) [I-197]
7,50 to 100,COc1cc2nn([C@H]3CC[C@H](CN4CCO[C@@H](CCCNc5cccc6c5C(=O)N(C5CCC(=O)NC5=O)C6=O)C4)CC3)cc2cc1NC(=O)c1cccc(C(F)(F)F)n1 (some centres unmarked) [I-227]
8,< 50,Cc1cccc(C(=O)Nc2cc3cn([C@H]4CC[C@H](CN5CCC(COCCCNc6cccc7c6C(=O)N(C6CCC(=O)NC6=O)C7=O)CC5)CC4)nc3cc2C(C)(C)O)n1 (some centres unmarked) [I-304]
9,< 50,CC(C)(O)c1cc2nn([C@H]3CC[C@H](CN4CCC(O[C@H]5C[C@H](Nc6cccc7c6C(=O)N(C6CCC(=O)NC6=O)C7=O)C5)CC4)CC3)cc2cc1NC(=O)c1cccc(C(F)(F)F)n1 (some centres unmarked) [I-312]
10,100 to 500,COc1cc2nc([C@H]3CC[C@H](CN4CC5(CC(CCNc6cccc7c6C(=O)N(C6CCC(=O)NC6=O)C7=O)C5)C4)CC3)oc2cc1NC(=O)c1cccc(C(F)(F)F)n1 (some centres unmarked) [I-180]
11,50 to 100,CC(C)(O)c1cc2nc(N3CCC(CN4CCC5(CC4)CC(Nc4cccc6c4C(=O)N(C4CCC(=O)NC4=O)C6=O)C5)CC3)oc2cc1NC(=O)c1cccc(C(F)(F)F)n1 (centres unmarked) [I-184]
12,50 to 100,COc1cc2nn([C@H]3CC[C@H](CN4CCC5(CC4)CC(Nc4cccc6c4C(=O)N(C4CCC(=O)NC4=O)C6=O)C5)CC3)cc2cc1NC(=O)c1cccc(C(C)(C)F)n1 (some centres unmarked) [I-78]
13,50 to 100,O=C1CCC(N2C(=O)c3cccc(NCCC4CC5(CCN(C[C@H]6CC[C@H](n7cc8cc(NC(=O)c9cccc(C(F)(F)F)n9)c(OC(F)(F)F)cc8n7)CC6)CC5)C4)c3C2=O)C(=O)N1 (some centres unmarked) [I-141]
14,50 to 100,Cn1c2cc(NC(=O)c3cccc(C(F)(F)F)n3)c(C(C)(C)O)cc2nc1[C@H]1CC[C@H](CN2CC3(CC(CCNc4cccc5c4C(=O)N(C4CCC(=O)NC4=O)C5=O)C3)C2)CC1 (some centres unmarked) [I-287]
15,< 50,COc1cc2nn([C@H]3CC[C@H](CN4CC5(CC([C@H](C)CNc6cccc7c6C(=O)N(C6CCC(=O)NC6=O)C7=O)C5)C4)CC3)cc2cc1NC(=O)c1cccc(C(F)(F)F)n1 (some centres unmarked) [I-332]
16,50 to 100,CC(F)(F)c1cccc(C(=O)Nc2cc3cn([C@H]4CC[C@H](CN5CC6(CC(CCNc7cccc8c7C(=O)N(C7CCC(=O)NC7=O)C8=O)C6)C5)CC4)nc3cc2OC2CC2)n1 (some centres unmarked) [I-200]

row,Compound,DC50 [nM]
1,"CN(CCCO[C@H]1C[C@H](Nc2cccc3c2C(=O)N(C2CCC(=O)NC2=O)C3=O)C1)C[C@@]1(C)Cc2cc(NC(=O)c3cnn4cccnc34)c(N3CCOCC3)cc2O1 (stereo partly drawn) [I-161, N-[(2R)-2-[[3-[3-[[2-(2,6-dioxo-3-piperidyl)-1,3-dioxo-isoindolin-4-yl]amino]cyclobutoxy]propyl-methyl-amino]methyl]-2-methyl-6-morpholino-3H-benzofuran-5-yl]pyrazolo[1,5-a]pyrimidine-3-carboxamide]",500 to 1000
2,"COc1cc2nn([C@H]3CC[C@H](CN4CCC5(CC4)CC(CCNc4cccc6c4C(=O)N(C4CCC(=O)NC4=O)C6=O)C5)CC3)cc2cc1NC(=O)c1cccc(C(C)(F)F)n1 (single isomer, unassigned) [I-129]",50 to 100
